# Data reported in ChEMBL document CHEMBL3751808, “Gambogic acid induces apoptotic cell death in T98G glioma cells” (Bioorg Med Chem Lett, 2016).
# The source made the active and inactive calls. No cut-off for these calls is given here.
# Tests used:
# T98G [1] = experiment: Antiproliferative activity against human T98G cells after 24 hrs by EZ-Tox assay; assay type: functional, cell-based
# T98G [2] = experiment: Induction of apoptosis in human T98G cells assessed as decrease of Bcl-2 level at 200 to 400 nM after 10 to 24 hrs by Western blot analysis; assay type: functional, cell-based
# T98G [3] = experiment: Induction of apoptosis in human T98G cells assessed as decrease in cell viability after 24 hrs using propidium iodide /Hoechst staining by FACS analysis; assay type: functional, cell-based
# T98G [4] = experiment: Induction of apoptosis in human T98G cells assessed as increase of ROS level at 200 nM after 8 hrs using DCFH-DA staining by FACS analysis (reference value: 2.4%); assay type: functional
# T98G [5] = experiment: Induction of apoptosis in human T98G cells assessed as increase of ROS level at 400 nM after 8 hrs using DCFH-DA staining by FACS analysis in presence of NAC (reference value: 2.4%); assay type: functional
# T98G [6] = experiment: Induction of apoptosis in human T98G cells assessed as increase of ROS level at 200 to 400 nM after 10 hrs using DCFH-DA staining by fluorescence microscopic analysis; assay type: functional, cell-based
# T98G [7] = experiment: Induction of apoptosis in human T98G cells assessed as late-stage apoptotic cells at 400 nM after 24 hrs using annexin V/propidium iodide staining by FACS analysis; assay type: functional
# T98G [8] = experiment: Induction of apoptosis in human T98G cells assessed as decrease in cell viability at 400 nM after 24 hrs using propidium iodide /Hoechst staining by FACS analysis in presence of NAC (reference value: 2.9%); assay type: functional
# T98G [9] = experiment: Induction of apoptosis in human T98G cells assessed as decrease in cell viability at 200 nM after 24 hrs using propidium iodide /Hoechst staining by FACS analysis (reference value: 2.9%); assay type: functional
# T98G [10] = experiment: Induction of apoptosis in human T98G cells assessed as increase of cleaved caspase-9 level at 200 to 400 nM after 10 to 24 hrs by Western blot analysis; assay type: functional, cell-based
# T98G [11] = experiment: Induction of apoptosis in human T98G cells assessed as increase of Bax level at 200 to 400 nM after 10 to 24 hrs by Western blot analysis; assay type: functional, cell-based
# T98G [12] = experiment: Induction of apoptosis in human T98G cells assessed as increase of ROS level at 400 nM after 8 hrs using DCFH-DA staining by FACS analysis (reference value: 2.4%); assay type: functional
# T98G [13] = experiment: Induction of apoptosis in human T98G cells assessed as increase of ROS level at 200 nM after 8 hrs using DCFH-DA staining by FACS analysis in presence of NAC (reference value: 2.4%); assay type: functional
# T98G [14] = experiment: Induction of apoptosis in human T98G cells assessed as increase of ROS level at 200 to 400 nM after 10 hrs using DCFH-DA staining by fluorescence microscopic analysis in presence of NAC; assay type: functional, cell-based
# T98G [15] = experiment: Induction of apoptosis in human T98G cells assessed as decrease in cell viability at 200 nM after 24 hrs using propidium iodide /Hoechst staining by FACS analysis in presence of NAC (reference value: 2.9%); assay type: functional
# T98G [16] = experiment: Induction of apoptosis in human T98G cells assessed as necrotic cells at 200 nM after 24 hrs using annexin V/propidium iodide staining by FACS analysis; assay type: functional
# T98G [17] = experiment: Induction of apoptosis in human T98G cells assessed as increase of AIF level at 200 to 400 nM after 10 to 24 hrs by Western blot analysis; assay type: functional, cell-based
# T98G [18] = experiment: Induction of apoptosis in human T98G cells assessed as late-stage apoptotic cells at 200 nM after 24 hrs using annexin V/propidium iodide staining by FACS analysis; assay type: functional
# T98G [19] = experiment: Induction of apoptosis in human T98G cells assessed as increase of cleaved caspase-8 level at 200 to 400 nM after 10 to 24 hrs by Western blot analysis; assay type: functional, cell-based
# T98G [20] = experiment: Induction of apoptosis in human T98G cells assessed as increase of cleaved PARP level at 200 to 400 nM after 10 to 24 hrs by Western blot analysis; assay type: functional, cell-based
# T98G [21] = experiment: Induction of apoptosis in human T98G cells assessed as increase of cytochrome-c protein level at 200 to 400 nM after 10 to 24 hrs by Western blot analysis; assay type: functional, cell-based
# T98G [22] = experiment: Induction of apoptosis in human T98G cells assessed as decrease in cell viability at 400 nM after 24 hrs using propidium iodide /Hoechst staining by FACS analysis (reference value: 2.9%); assay type: functional
# T98G [23] = experiment: Induction of apoptosis in human T98G cells assessed as necrotic cells at 400 nM after 24 hrs using annexin V/propidium iodide staining by FACS analysis; assay type: functional
# T98G [24] = experiment: Induction of apoptosis in human T98G cells assessed as increase of cleaved caspase-3 level at 200 to 400 nM after 10 to 24 hrs by Western blot analysis; assay type: functional, cell-based
# T98G [25] = experiment: Induction of apoptosis in human T98G cells assessed as early-stage apoptotic cells at 400 nM after 24 hrs using annexin V/propidium iodide staining by FACS analysis; assay type: functional
# T98G [26] = experiment: Induction of apoptosis in human T98G cells assessed as early-stage apoptotic cells at 200 nM after 24 hrs using annexin V/propidium iodide staining by FACS analysis; assay type: functional
# T98G [27] = experiment: Antiproliferative activity against human T98G cells assessed as cell viability after 72 hrs by MTT assay; assay type: functional, cell-based
compound,measurement,setting,value
COc1cccc2c1C(=O)c1c(O)c3c(c(O)c1C2=O)C[C@@](O)(C(=O)CO)C[C@@H]3O[C@H]1C[C@H](N)[C@H](O)[C@H](C)O1 [DOXORUBICIN],IC50,T98G [1],0.5 µM
CC(C)=CCC[C@]1(C)C=Cc2c(O)c3c(c(CC=C(C)C)c2O1)O[C@]12C(=C[C@@H]4C[C@H]1C(C)(C)O[C@@]2(C/C=C(/C)C(=O)O)C4=O)C3=O [GAMBOGIC ACID],Activity,T98G [2],Active
same,Activity,T98G [3],Dose-dependent effect
same,Activity,T98G [4],38.5%
same,Activity,T98G [5],2.6%
same,Activity,T98G [6],Active
same,Activity,T98G [7],13.7%
same,Activity,T98G [8],6%
same,Activity,T98G [9],33.4%
same,Activity,T98G [10],Active
same,Activity,T98G [11],Active
same,Activity,T98G [12],36.5%
same,Activity,T98G [13],2.8%
same,Activity,T98G [14],inactive
same,Activity,T98G [15],5.8%
same,Activity,T98G [16],4%
same,Activity,T98G [17],Active
same,Activity,T98G [18],8.57%
same,Activity,T98G [19],Active
same,Activity,T98G [20],Active
same,Activity,T98G [21],Active
same,Activity,T98G [22],76.6%
same,Activity,T98G [23],27.6%
same,Activity,T98G [24],Active
same,Activity,T98G [25],12.6%
same,Activity,T98G [1],Dose-dependent effect
same,IC50,T98G [1],≤ 0.3 µM
same,Activity,T98G [26],32.3%
O=C(O[C@@H]1Cc2c(O)cc(O)cc2O[C@@H]1c1cc(O)c(O)c(O)c1)c1cc(O)c(O)c(O)c1 [EPIGALOCATECHIN GALLATE],IC50,T98G [1],166 µM
COc1cc(/C=C/C(=O)CC(=O)/C=C/c2ccc(O)c(OC)c2)ccc1O [CURCUMIN],IC50,T98G [27],25 µM
same,IC50,T98G [1],10 µM
